Experimental data reported in article PMC4725968 (Scientific Reports, 2016).

How the values were obtained:
[1] = molecular target: T1, DERAEC (Escherichia coli, UniProt P0A6L0); test: steady-state kinetics, coupled GDH/TPI assay, NADH at […] nm; format: biochemical; conditions: retro-aldol cleavage; 25 °C
T1 construct: gene deoC; deoC isolated previously; E. coli BL21(DE3); NiNTA purification; dimer
T1 sequence (P0A6L0 1-259): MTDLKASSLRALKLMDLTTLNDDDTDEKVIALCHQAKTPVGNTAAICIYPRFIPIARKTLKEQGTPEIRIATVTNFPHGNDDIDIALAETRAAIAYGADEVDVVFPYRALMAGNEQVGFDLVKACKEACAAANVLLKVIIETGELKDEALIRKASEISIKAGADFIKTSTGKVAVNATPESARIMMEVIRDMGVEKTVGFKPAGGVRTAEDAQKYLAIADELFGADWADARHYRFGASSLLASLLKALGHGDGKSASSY

[2] = molecular target: T2, DERAPA (Pyrobaculum aerophilum, UniProt Q8ZXK7); test: as above; format: biochemical; conditions: retro-aldol cleavage; 25 °C
T2 construct: gene deoC; synthetic deoC gene in pET21a, C-terminal 6xHis tag; E. coli BL21(DE3); NiNTA; dimer
T2 sequence (Q8ZXK7 1-226): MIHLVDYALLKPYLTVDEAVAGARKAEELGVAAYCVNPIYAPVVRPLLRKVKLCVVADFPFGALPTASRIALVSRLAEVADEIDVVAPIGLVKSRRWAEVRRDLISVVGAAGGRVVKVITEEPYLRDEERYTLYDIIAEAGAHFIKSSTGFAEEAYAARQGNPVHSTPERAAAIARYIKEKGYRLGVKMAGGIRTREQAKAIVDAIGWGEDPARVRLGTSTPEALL

[3] = molecular target: T3, DERACP (Colwellia psychrerythraea, UniProt Q483R4); test: as above; format: biochemical; conditions: retro-aldol cleavage; 25 °C
T3 construct: gene deoC; synthetic deoC gene in pET21a, C-terminal 6xHis tag; E. coli BL21(DE3); NiNTA; dimer
T3 sequence (Q483R4 1-257): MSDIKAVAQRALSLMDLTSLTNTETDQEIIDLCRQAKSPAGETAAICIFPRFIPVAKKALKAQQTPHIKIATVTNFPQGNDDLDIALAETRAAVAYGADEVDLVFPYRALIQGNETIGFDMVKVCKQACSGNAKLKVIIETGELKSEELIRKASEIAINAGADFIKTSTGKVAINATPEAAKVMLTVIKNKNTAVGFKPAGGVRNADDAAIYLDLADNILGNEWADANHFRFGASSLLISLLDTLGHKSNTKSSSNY

[4] = molecular target: T4, DERASH (Shewanella halifaxensis, UniProt B0TQ91); test: as above; format: biochemical; conditions: retro-aldol cleavage; 25 °C
T4 construct: gene deoC; deoC isolated from genomic DNA; E. coli BL21(DE3); NiNTA purification; dimer

[5] = molecular target: T5, DERATM (Thermotoga maritima, UniProt Q9X1P5); test: as above; format: biochemical; conditions: retro-aldol cleavage; 25 °C
T5 construct: gene deoC; synthetic deoC gene in pET21a, C-terminal 6xHis tag; E. coli BL21(DE3); NiNTA; dimer
T5 sequence (Q9X1P5 1-248): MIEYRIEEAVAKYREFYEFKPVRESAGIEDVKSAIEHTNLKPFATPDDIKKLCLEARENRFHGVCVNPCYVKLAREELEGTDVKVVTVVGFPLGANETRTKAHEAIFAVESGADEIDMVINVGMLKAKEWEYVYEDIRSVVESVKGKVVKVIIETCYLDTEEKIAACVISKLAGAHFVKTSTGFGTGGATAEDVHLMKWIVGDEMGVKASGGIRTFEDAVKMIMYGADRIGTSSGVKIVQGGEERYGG

[6] = molecular target: the molecule itself; test: SEC; Superdex 200 10/300 GL, 100 mM KPi, 150 mM NaCl (pH 7); 1-5 mg protein loaded; calibrated with five protein standards between 12.5 and 200 kDa; hydrodynamic size
[7] = molecular target: the molecule itself; test: cross-linking; engineered intermolecular disulfide (A95C) across the dimer interface; oxidised against reduced mutant on SDS-PAGE under non-reducing conditions
[8] = molecular target: the molecule itself; test: crystal structure; sitting-drop vapour diffusion at 20 °C; data at 100 K; DERACP tetragonal (P4(1)2(1)2, two chains per asymmetric unit) and hexagonal (P6(1)22, four chains) forms, DERASH (C2, four chains)

T4 sequence (B0TQ91 whole entry): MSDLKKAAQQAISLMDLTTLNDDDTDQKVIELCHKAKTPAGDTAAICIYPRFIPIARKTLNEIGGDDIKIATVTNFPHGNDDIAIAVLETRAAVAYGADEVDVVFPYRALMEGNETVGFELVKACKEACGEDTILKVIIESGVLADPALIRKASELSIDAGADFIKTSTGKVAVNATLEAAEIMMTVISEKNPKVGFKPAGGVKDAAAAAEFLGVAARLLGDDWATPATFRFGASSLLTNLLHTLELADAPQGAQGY

In the case of `O=P(O)(O)OC[C@H]1OC(O)C[C@@H]1O` (stereo partly drawn) [2-deoxy-D-ribose-5-phosphate], the KM [1] is reported as “Both KM and kcat values decrease with increasing optimal growth temperature of the organism”, the KM [2] is reported as “Both KM and kcat values decrease with increasing optimal growth temperature of the organism” and the KM [3] is reported as “Both KM and kcat values decrease with increasing optimal growth temperature of the organism”. The KM [4] was “Both KM and kcat values decrease with increasing optimal growth temperature of the organism” and the KM [5] was “Both KM and kcat values decrease with increasing optimal growth temperature of the organism”.

B1: 2-deoxy-D-ribose-5-phosphate aldolase (DERA) from Pyrobaculum aerophilum, wild type (enzyme)
chain: MIHLVDYALLKPYLTVDEAVAGARKAEELGVAAYCVNPIYAPVVRPLLRKVKLCVVADFPFGALPTASRIALVSRLAEVADEIDVVAPIGLVKSRRWAEVRRDLISVVGAAGGRVVKVITEEPYLRDEERYTLYDIIAEAGAHFIKSSTGFAEEAYAARQGNPVHSTPERAAAIARYIKEKGYRLGVKMAGGIRTREQAKAIVDAIGWGEDPARVRLGTSTPEALL
notes: 2-deoxy-D-ribose-5-phosphate aldolase (DERA, deoC gene) of Pyrobaculum aerophilum; gene synthesised by GenScript, in pET21a; also called DERAPA; hyperthermophilic DERA; source: E. coli BL21(DE3), purified (Ni-NTA)
For B1, the “stoichiometry N” value [6] was 2.

B2: A95C mutant of DERA from Escherichia coli (enzyme)
chain: MTDLKASSLRALKLMDLTTLNDDDTDEKVIALCHQAKTPVGNTAAICIYPRFIPIARKTLKEQGTPEIRIATVTNFPHGNDDIDIALAETRAAICYGADEVDVVFPYRALMAGNEQVGFDLVKACKEACAAANVLLKVIIETGELKDEALIRKASEISIKAGADFIKTSTGKVAVNATPESARIMMEVIRDMGVEKTVGFKPAGGVRTAEDAQKYLAIADELFGADWADARHYRFGASSLLASLLKALGHGDGKSASSY
modifications: intermolecular disulfide bridge C95-C95 in the oxidised form
notes: DERA (deoC gene) of Escherichia coli with the mutation A95C; also called DERAEC A95C; source: E. coli BL21(DE3), purified (Ni-NTA)
B2: binds [7].

B3: 2-deoxy-D-ribose-5-phosphate aldolase (DERA) from Thermotoga maritima, wild type (enzyme)
chain: MIEYRIEEAVAKYREFYEFKPVRESAGIEDVKSAIEHTNLKPFATPDDIKKLCLEARENRFHGVCVNPCYVKLAREELEGTDVKVVTVVGFPLGANETRTKAHEAIFAVESGADEIDMVINVGMLKAKEWEYVYEDIRSVVESVKGKVVKVIIETCYLDTEEKIAACVISKLAGAHFVKTSTGFGTGGATAEDVHLMKWIVGDEMGVKASGGIRTFEDAVKMIMYGADRIGTSSGVKIVQGGEERYGG
notes: 2-deoxy-D-ribose-5-phosphate aldolase (DERA, deoC gene) of Thermotoga maritima; gene synthesised by GenScript, in pET21a; also called DERATM; hyperthermophilic DERA; source: E. coli BL21(DE3), purified (Ni-NTA)
In the case of B3, the “stoichiometry N” value [6] is reported as 2.

B4: 2-deoxy-D-ribose-5-phosphate aldolase (DERA) from Colwellia psychrerythraea, wild type (enzyme, UniProt Q483R4 1-257, looked up)
chain: MSDIKAVAQRALSLMDLTSLTNTETDQEIIDLCRQAKSPAGETAAICIFPRFIPVAKKALKAQQTPHIKIATVTNFPQGNDDLDIALAETRAAVAYGADEVDLVFPYRALIQGNETIGFDMVKVCKQACSGNAKLKVIIETGELKSEELIRKASEIAINAGADFIKTSTGKVAINATPEAAKVMLTVIKNKNTAVGFKPAGGVRNADDAAIYLDLADNILGNEWADANHFRFGASSLLISLLDTLGHKSNTKSSSNY
notes: 2-deoxy-D-ribose-5-phosphate aldolase (DERA, deoC gene) of Colwellia psychrerythraea; gene synthesised by GenScript, in pET21a; also called DERACP; psychrophilic DERA; source: E. coli BL21(DE3), purified (Ni-NTA, SEC)
For B4, the “stoichiometry N” value [8] was 2.
